From paper PMC5118709, “Identification of Polo-like kinase 1 interaction inhibitors using a novel cell-based assay” (Scientific Reports, 2016) come the findings set out here.

Structures are written as SMILES. “And” between values parts separate entries of the source, which are not always exact repeats. Equal values may be shown once.

Data set [1] is described as follows: stability by LC-MS. Format: physicochemical. The source says: Based on these observations, we speculated that the sulfone undergoes a β-elimination of the benzoate subunit to generate a vinyl sulfone which is responsible for the biological activity of this class of compounds. Using LCMS, we evaluated the stability of Cpd 16 in the buffer used in the FP assay. […] The sulfone β-elimination is a base-catalysed process and the buffer used in the assay is basic enough to allow the reaction to occur. Under neutral or acidic conditions, the compound was very stable and no fragmentation was observed.
Cpd 161, which is 2-((6-methyl-4-(trifluoromethyl)pyridin-2-yl)sulfonyl)ethyl 3-chlorobenzoate (400 μM final concentration), was added to 500 μl of FP buffer (previously described).

The target of data set [2] is T1, Plk1 (Homo sapiens, UniProt P53350).
T1 construct: localization of Plk1-GFP or endogenous Plk1 from mitotic centrosomes, kinetochores or the cytokinetic midbody; endogenous in cells
T1 sequence (P53350 whole entry): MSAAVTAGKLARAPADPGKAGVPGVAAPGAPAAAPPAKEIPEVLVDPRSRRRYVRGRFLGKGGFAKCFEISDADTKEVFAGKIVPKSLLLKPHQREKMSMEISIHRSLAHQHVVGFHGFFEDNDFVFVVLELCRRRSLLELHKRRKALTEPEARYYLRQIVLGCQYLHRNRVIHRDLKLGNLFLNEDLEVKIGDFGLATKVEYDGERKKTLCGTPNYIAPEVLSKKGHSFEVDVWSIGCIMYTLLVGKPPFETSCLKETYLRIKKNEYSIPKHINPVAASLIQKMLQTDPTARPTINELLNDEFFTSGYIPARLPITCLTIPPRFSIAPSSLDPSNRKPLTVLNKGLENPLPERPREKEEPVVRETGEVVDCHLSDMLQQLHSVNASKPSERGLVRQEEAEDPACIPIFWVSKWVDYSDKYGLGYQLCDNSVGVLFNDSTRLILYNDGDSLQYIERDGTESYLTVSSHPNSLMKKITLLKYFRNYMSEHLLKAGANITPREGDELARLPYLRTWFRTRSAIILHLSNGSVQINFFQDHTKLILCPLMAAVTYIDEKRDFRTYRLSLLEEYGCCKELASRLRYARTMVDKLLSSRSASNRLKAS
Put plainly: localization of Plk1 in mitotic cells. It counts as cell-based. As to conditions: up to 100 μM, data not shown.

For data set [3], the target named is T2, CRAF-BRAF (Homo sapiens, UniProt P04049+P15056).
T2 construct: expressed in transfected cells; host or cells: HEK293T, transient transfection with PEI
T2 sequence (P04049 whole entry): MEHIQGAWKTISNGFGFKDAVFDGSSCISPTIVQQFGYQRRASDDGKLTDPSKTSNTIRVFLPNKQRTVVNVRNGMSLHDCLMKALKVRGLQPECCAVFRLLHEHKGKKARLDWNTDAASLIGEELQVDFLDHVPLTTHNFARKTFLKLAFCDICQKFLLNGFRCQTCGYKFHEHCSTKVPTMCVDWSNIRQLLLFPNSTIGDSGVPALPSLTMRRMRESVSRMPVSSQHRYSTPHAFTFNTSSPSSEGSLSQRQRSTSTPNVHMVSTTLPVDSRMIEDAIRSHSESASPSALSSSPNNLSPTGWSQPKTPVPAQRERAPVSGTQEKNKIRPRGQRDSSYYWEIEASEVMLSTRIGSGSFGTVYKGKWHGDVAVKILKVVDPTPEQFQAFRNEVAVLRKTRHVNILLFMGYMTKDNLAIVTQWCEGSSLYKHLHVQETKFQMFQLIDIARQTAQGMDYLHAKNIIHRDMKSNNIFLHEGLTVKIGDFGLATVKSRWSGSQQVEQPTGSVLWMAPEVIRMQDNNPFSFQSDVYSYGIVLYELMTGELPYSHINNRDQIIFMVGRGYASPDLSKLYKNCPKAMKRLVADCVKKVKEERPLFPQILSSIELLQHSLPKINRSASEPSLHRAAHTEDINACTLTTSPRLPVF
T2 sequence (P15056 whole entry): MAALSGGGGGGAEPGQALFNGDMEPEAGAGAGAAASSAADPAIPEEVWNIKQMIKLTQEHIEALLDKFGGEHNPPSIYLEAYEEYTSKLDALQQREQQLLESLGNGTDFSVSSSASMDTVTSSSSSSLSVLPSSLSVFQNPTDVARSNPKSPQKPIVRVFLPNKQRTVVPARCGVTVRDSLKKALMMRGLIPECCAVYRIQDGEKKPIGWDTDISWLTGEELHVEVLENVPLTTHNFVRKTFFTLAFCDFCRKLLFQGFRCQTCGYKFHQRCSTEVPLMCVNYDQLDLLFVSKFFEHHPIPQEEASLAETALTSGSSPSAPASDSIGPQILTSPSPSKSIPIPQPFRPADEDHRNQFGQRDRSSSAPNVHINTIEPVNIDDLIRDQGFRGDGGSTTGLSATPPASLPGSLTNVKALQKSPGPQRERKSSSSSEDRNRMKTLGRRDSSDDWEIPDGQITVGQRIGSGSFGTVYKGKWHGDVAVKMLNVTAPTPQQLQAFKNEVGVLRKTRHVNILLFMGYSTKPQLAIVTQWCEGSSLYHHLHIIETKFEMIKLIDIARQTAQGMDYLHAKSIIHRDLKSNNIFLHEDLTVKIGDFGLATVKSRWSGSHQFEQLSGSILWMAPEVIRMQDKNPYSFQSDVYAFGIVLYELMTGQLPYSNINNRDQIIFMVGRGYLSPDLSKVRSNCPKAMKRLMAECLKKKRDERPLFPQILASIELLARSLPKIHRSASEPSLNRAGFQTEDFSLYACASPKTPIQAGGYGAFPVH
The experiment in a line: control BRET CRAF-BRAF (transient). It counts as cell-based. The method, then: We used our cell-based assay to screen a library of 112 983 compounds available in-house at IRIC’s High-Throughput Screening (HTS) platform (see Materials & Methods). Compounds were tested on cells in 384-well plates at concentrations between 10 μM and 25 μM, depending on their concentration in the original stocks solutions. BRET readings were taken 2 hours after treatment. Results obtained show a tight, close to normal distribution centered around zero inhibition relative to DMSO-treated controls (Fig. 1D). Compounds inducing at least 30% BRET inhibition were selected. From these, auto-fluorescent compounds and those that induced more than 90% reduction in RLucII luminescence were removed, leaving 800 primary hits, that we then re-tested using the same assay. In parallel, we tested these compounds in a control BRET assay for an unrelated pair of interacting proteins (BRAF-CRAF[46]) to exclude false-positive compounds that could reduce the BRET signal by interfering with light or by modifying the activity of GFP or Luc.
(§1) For the confirmation screen, the same procedure as for the primary screen was followed, except that HEK293T cells were also seeded at 6.25 millions of cells per simple CellStack on day 1 for transient transfections. These cells were transfected on day 3 with Luc-Map (5 μg) and Plk1-GFP (25 μg) pIRESHyg3 plasmids using polyethylenimine (PEI). To identify false-positives compounds, Luc-CRAF (4 μg) and GFP-BRAF (20 μg) plasmids were also transfected with PEI following the published procedure.

In data set [4] the test system is HEK293T cells. Put plainly: mitotic index assay (phospho-Histone H3) in HEK293T cells. As to conditions: 10 μM.
Protocol: For the mitotic index assay, 4000 HeLa cells or 5000 HEK293T cells per well were seeded in a 96-well plate. The day after, cells were incubated for 7 hours with different compounds, and then fixed by adding formaldehyde (4% final concentration) directly to each well. Plates were incubated 20 minutes at 37 °C, and then wells were rinsed three times with TBS-Tween 0.1%. A 1 hour block with PHEM buffer (60 mM Pipes, 25 mM HEPES, 10 mM EGTA, 4 mM MgSO4, pH 6.9) containing 2% BSA and 0.1% triton was performed, before addition of the primary antibody to the wells. The anti-phospho-Histone H3 (Ser10) antibody (EMD Millipore) was diluted 1:300 in PHEM buffer containing 2% BSA and added to the wells for 2 hours at room temperature in the dark. […] Plates were incubated for 1h 30 at room temperature in the dark, and then wells were washed 3 times with TBS-Tween 0.1%. A solution of Mowiol containing DAPI was finally added to the wells. Plates were kept at 4 °C in the dark until imaging using the 20x objective on an Operetta system (Perkin Elmer inc.). The mitotic index, corresponding to the percentage of pHH3 positive cells relative to the total number of DAPI-stained cells detected was calculated by the Operetta using the Harmony 3.5 software. Experiments were done in triplicates.
The target of data set [5] is PBD of Plk1 (Homo sapiens, UniProt P53350). Put plainly: fluorescence polarization assay PBD-Map peptide. Format: binding. The method, then: The FP buffer was composed of 10 mM Tris pH 8.0, 50 mM NaCl, 1 mM EDTA, 20% glycerol and 0.1% NP-40. The peptide (final concentration 10 nM) was always added to the wells of non-binding, black, 384-well plates, 1 hour after the addition of the protein with the buffer (+/− treatment, 10% DMSO). […] EC65s were used to perform the competitive assays with the non-labeled peptides and with the inhibitors. FP Inhibition was calculated with the formula: 100 − [((mPsample − mPfree peptide)\(mPDMSO − mPfree peptide)) × 100]. […] (Map peptide), and corresponding non-labeled peptides are identical but without FITC in N-terminal. […] Inhibition curves were fitted with GraphPad (Prism software).
Chain of PBD of Plk1 (P53350 367-603 limits assumed): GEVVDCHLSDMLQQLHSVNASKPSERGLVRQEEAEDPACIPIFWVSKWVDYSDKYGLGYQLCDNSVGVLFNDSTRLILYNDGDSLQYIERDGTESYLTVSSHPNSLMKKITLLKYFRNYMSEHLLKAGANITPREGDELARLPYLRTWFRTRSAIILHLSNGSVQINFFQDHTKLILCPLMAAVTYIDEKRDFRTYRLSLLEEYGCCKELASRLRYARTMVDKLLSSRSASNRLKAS

Data set [6] has as its system HeLa cells. Put plainly: mitotic index assay (phospho-Histone H3) in HeLa cells. As to conditions: 10-25 μM, 7 h. Format: cell-based.
Data set [7] concerns the target T3, Plk1-Map interaction (Homo sapiens, UniProt P53350). Put plainly: BRET Plk1-Map, transient Luc-Map/Plk1-GFP in HEK293T. It counts as cell-based. The arrangement: cDNAs for the human full length Plk1; expressed in transfected cells. As to conditions: confirmation screen. Here is the method:
as §1
In general terms: BRET reads energy transfer from a luciferase to a nearby fluorophore.

For data set [8], the system named is HeLa cells. Put plainly: mitotic defect phenotypes by immunofluorescence. Format: cell-based. As to conditions: 10 μM, 7 h. The method in brief:
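HeLa cells on poly-L-lysine coverslips treated 7 h, fixed in 4% formaldehyde/PHEM at 37 °C. Immunostained for pericentrin and α-tubulin with DAPI for DNA; spindle organisation scored by fluorescence microscopy against DMSO controls.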

Data set [9] concerns the target T3, Plk1-Map interaction. The experiment in a line: LUMIER co-immunoprecipitation assay Plk1-Map.
Protocol: After cell lysis, GFP-Plk1 was immunoprecipitated and co-purified Map-Luc was measured by luminescence following addition of the luciferase substrate, coelenterazine.
Half a million stably transfected Map205-RLucII/GFP10-Plk1 cells in Tyrode solution were seeded per well in a 96-well plate and allowed to settle for 30 min at 37 °C. […] Plates were then centrifuged at 4 °C at 3000 rpm for 5 minutes to pellet cells. Cells were then lysed with the IP buffer (20 mM Tris pH 7.5, 150 mM NaCl, 2 mM EGTA, 0.5% NP-40, 1 mM DTT, PMSF, aprotinin and leupeptin) and incubated on ice for 20 minutes. Plates were centrifuged again at 4 °C at 3400 rpm for 10 minutes, and the soluble fraction was transferred into a new 96-well plate. Note that 10 μl of this fraction was transferred in white 96-well plates from which the luminescence was read as a measure of the input amount of cell lysate for the co-IP. GFP-Plk1 was immunoprecipitated by adding 0.35 μl of anti-GFP antibody (Invitrogen). Plates were sealed and incubated on a rotator at 4 °C for 30 minutes. Then, 4 μl of pre-washed protein A magnetic beads (Invitrogen) were added to each well. Plates were sealed and incubated at 4 °C for 1h30. The extracts + beads were then transferred in a 96-well PCR plates and beads were washed 3 times with the IP buffer using a magnetic 96-well rack. The fourth wash was done in Tyrode solution, then beads were re-suspended with it and transferred in a white 96-well plate. […] Tyrode was also added to the plates containing the input fraction, then Coelenterazine h was added to the wells, and enhanced luminescence was read as described above.

T3 sequence (P53350 whole entry): as the sequence (P53350 whole entry) above

With `Cc1cc(C(F)(F)F)cc(S(=O)(=O)CCOC(=O)c2cccc(Cl)c2)n1` [Cpd 16, 2-((6-methyl-4-(trifluoromethyl)pyridin-2-yl)sulfonyl)ethyl 3-chlorobenzoate], the “stability in the FP buffer” value in data set [1] (approximate pH 8.0, a few minutes (approximately 10 minutes)) is “fragmentation occurred”. In addition, the stability entry in data set [1] (neutral or acidic conditions) was “very stable”. In data set [2], the “effect on localization of Plk1 in mitotic cells” value is “did not result in a significant decrease”. In addition, in data set [3] (10-25 μM), the “Primary screen CRAF-BRAF (transient) % Inihibition” value is 52.83% and the “Primary screen CRAF-BRAF (transient) % Quench RLuc” value was 88.39%. Further, in data set [3] (confirmation screen), the “Confirmation CRAF-BRAF (transient) % Inihibition” value is reported as 0.37% and the “Confirmation CRAF-BRAF (transient) % Quench RLuc” value was determined as 80.17%. For the same compound, the “effect on mitotic index, purchased compounds” value in data set [4] is listed as “effective”. For the same compound, the “disruption of the PBD-Map interaction in FP” value in data set [5] is listed as “disrupted the PBD-Map interaction”. Moreover, in data set [6], the “Mitotic index (%)” value is 15.73%. For the same compound, in [7], the “Confirmation Plk1-Map (transient) % Inihibition” value stood at 30.06% and the “Confirmation Plk1-Map (transient) % Quench RLuc” value stood at 74.57%. In data set [8], the “2 > pericentrin foci (percentage of cells)” value came out at 23 ± 11% and the “Disorganized spindles (percentage of cells)” value stood at 58 ± 13%. Besides, in [9] (10-25 μM, 2 h), the “Average-Beads (mean luminescence)” value is on record as 25,276, the “Co-IP Values relative to top in plate column = 1” value is 0.022 and the “effect on the Plk1-Map interaction in co-IP” value is “disrupts the interaction with similar or better efficiency than TQ or PPG”. For the same compound, the “Relative Luminescence Unit” value in data set [9] (mean divided by maximum mean of the compounds) came out at 0.022. For the same compound, the “Luminescence on beads, duplicate wells” value in data set [9] (raw data, 10-25 μM, 2 h) was 21,904 and 28,648.
